Source: ChEMBL document CHEMBL1201862, “PubChem BioAssay data set” (2004)
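48-hour exposure; five concentrations; linearly interpolated endpoints. Here, GI50 denotes the concentration required for 50% inhibition of growth.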 Calls of active or inactive are those of the source. Rule as the data show it: active = GI50 up to about 1.1 µM and inactive = higher.

What was measured:
Assay in all cases: inhibition of tumour cell growth, NCI panel, 48 h
OVCAR-5 = system: OVCAR-5
ACHN = system: ACHN
HCT-116 = system: HCT-116
TK-10 = system: TK-10
SF-295 = system: SF-295
SR = system: SR
OVCAR-4 = system: OVCAR-4
EKVX = system: EKVX
OVCAR-8 = system: OVCAR-8
SF-539 = system: SF-539
A549 = system: A549
M14 = system: M14
SF-268 = system: SF-268
MOLT-4 = system: MOLT-4
U-251 = system: U-251
SK-MEL-28 = system: SK-MEL-28
K562 = system: K562
SN12C = system: SN12C
NCI-H522 = system: NCI-H522
HOP-62 = system: HOP-62

Measured: GI50

CC(=O)Nc1ccc(Sc2nnc(NC(C)=O)s2)cc1
inactive: OVCAR-5 > 100 µM | ACHN > 100 µM | HCT-116 > 100 µM | TK-10 > 100 µM | SF-295 > 100 µM | SR > 100 µM | OVCAR-4 > 100 µM | EKVX > 100 µM | OVCAR-8 > 100 µM | SF-539 > 100 µM | A549 > 100 µM | M14 > 100 µM | SF-268 > 100 µM | MOLT-4 > 100 µM | U-251 > 100 µM | SK-MEL-28 > 100 µM | K562 > 100 µM | SN12C > 100 µM | NCI-H522 > 100 µM | HOP-62 > 100 µM

N#CCCN(CCC#N)c1ccc(/C=C(/NC(=O)Nc2ccccc2Cl)NC(=O)c2cc([N+](=O)[O-])ccc2Cl)cc1
inactive: OVCAR-5 > 100 µM | ACHN 42.2 µM | HCT-116 > 100 µM | TK-10 > 100 µM | SF-295 > 100 µM | SR 42.4 µM | OVCAR-4 > 100 µM | EKVX > 100 µM | OVCAR-8 58.5 µM | SF-539 > 100 µM | A549 > 100 µM | M14 > 100 µM | SF-268 > 100 µM | MOLT-4 42 µM | U-251 > 100 µM | SK-MEL-28 > 100 µM | K562 64.6 µM | SN12C > 100 µM | NCI-H522 44.1 µM | HOP-62 > 100 µM
